Laboratory results from ChEMBL document CHEMBL4052770, “Synthesis and in vitro antiproliferative activities of (5-aryl-1,2,4-oxadiazole-3-yl) methyl d-ribofuranosides” (2017).

How the values were obtained:
Format in all cases: functional
WiDr = assay: Antiproliferative activity against human WiDr cells after 48 hrs by sulforhodamine B assay
HeLa = assay: Antiproliferative activity against human HeLa cells after 48 hrs by sulforhodamine B assay
A549 = assay: Antiproliferative activity against human A549 cells after 48 hrs by sulforhodamine B assay; conditions: A549, 48 h
T47D = assay: Antiproliferative activity against human T47D cells after 48 hrs by sulforhodamine B assay
HBL-100 = assay: Antiproliferative activity against human HBL100 cells after 48 hrs by sulforhodamine B assay; conditions: HBL-100, 48 h
SW1573 = assay: Antiproliferative activity against human SW1573 cells after 48 hrs by sulforhodamine B assay; conditions: SW1573, 48 h

Structure (SMILES)	GI50 (WiDr)	GI50 (HeLa)	GI50 (A549)	GI50 (T47D)	GI50 (HBL-100)	GI50 (SW1573)
O=[N+]([O-])c1ccc(-c2nc(CO[C@@H]3O[C@H](CSc4ncn[nH]4)[C@H]4OC5(CCCC5)O[C@@H]34)no2)cc1	20 µM	20 µM	10 µM	20 µM	24 µM	15 µM
CC1(C)O[C@H]2[C@H](OCc3noc(-c4ccc([N+](=O)[O-])cc4)n3)O[C@H](CSc3nnc(N)s3)[C@H]2O1	> 100 µM	> 100 µM	> 100 µM	> 100 µM	> 100 µM	> 100 µM
COc1cc(-n2cc(CO[C@@H]3O[C@H](CSc4ncn[nH]4)[C@H]4OC5(CCCC5)O[C@@H]34)nn2)cc(OC)c1OC	26 µM	30 µM	33 µM	41 µM	84 µM	> 100 µM
O=[N+]([O-])c1ccc(-c2nc(CO[C@@H]3O[C@H](CO)[C@H]4OC5(CCCC5)O[C@@H]34)no2)cc1	41 µM	15 µM	32 µM	50 µM	17 µM	27 µM
Clc1ccc(-c2nc(CO[C@@H]3O[C@H](CSc4ncn[nH]4)[C@H]4OC5(CCCC5)O[C@@H]34)no2)cc1	4.5 µM	14 µM	13 µM	10 µM	24 µM	10 µM
COc1cc(-c2nc(CO[C@@H]3O[C@H](CSc4nnc(N)s4)[C@H]4OC5(CCCC5)O[C@@H]34)no2)cc(OC)c1OC	41 µM	31 µM	36 µM	42 µM	33 µM	38 µM
CC1(C)O[C@H]2[C@H](OCc3noc(-c4ccc([N+](=O)[O-])cc4)n3)O[C@H](CO)[C@H]2O1	> 100 µM	99 µM	99 µM	> 100 µM	99 µM	60 µM
CC1(C)O[C@H]2[C@H](OCc3noc(-c4ccc([N+](=O)[O-])cc4)n3)O[C@H](CSc3ncn[nH]3)[C@H]2O1	> 100 µM	89 µM	90 µM	> 100 µM	> 100 µM	> 100 µM
Nc1nnc(SC[C@H]2O[C@@H](OCc3noc(-c4ccc([N+](=O)[O-])cc4)n3)[C@@H]3OC4(CCCC4)O[C@@H]32)s1	26 µM	28 µM	14 µM	19 µM	26 µM	16 µM
CC(=O)OC[C@H]1O[C@@H](OCc2noc(-c3ccc([N+](=O)[O-])cc3)n2)[C@@H]2OC3(CCCC3)O[C@@H]21	36 µM	17 µM	29 µM	52 µM	23 µM	29 µM
COc1cc(-c2cc(CO[C@@H]3O[C@H](CSc4ncn[nH]4)[C@H]4OC5(CCCC5)O[C@@H]34)on2)cc(OC)c1OC	74 µM	67 µM	59 µM	94 µM	87 µM	97 µM
COc1cc(-c2nc(CO[C@@H]3O[C@H](CSc4ncn[nH]4)[C@H]4OC5(CCCC5)O[C@@H]34)no2)cc(OC)c1OC	42 µM	37 µM	28 µM	44 µM	34 µM	36 µM
COc1cc(C2=NOC(CO[C@@H]3O[C@H](CSc4ncn[nH]4)[C@H]4OC5(CCCC5)O[C@@H]34)C2)cc(OC)c1OC (stereo not given in full)	53 µM	38 µM	37 µM	55 µM	43 µM	> 100 µM
Nc1nnc(SC[C@H]2O[C@@H](OCc3noc(-c4ccc(Cl)cc4)n3)[C@@H]3OC4(CCCC4)O[C@@H]32)s1	15 µM	16 µM	15 µM	18 µM	30 µM	17 µM
Cc1ccc(S(=O)(=O)OC[C@H]2O[C@@H](OCc3noc(-c4ccc([N+](=O)[O-])cc4)n3)[C@@H]3OC4(CCCC4)O[C@@H]32)cc1	> 100 µM	> 100 µM	> 100 µM	> 100 µM	> 100 µM	> 100 µM
